Assay results from PubChem BioAssay AID2060498 (Molecular Pharmacology Branch, DTP, NCI, 2025).
Where “and” joins values, the source holds several entries; their conditions need not be identical. Identical values can stand only once. One block for each molecule: values may come before it.

Tested on: 171881-019-R-J1-PDC tumor spheroids, viability
Experiment: Anticancer human tumor 171881-019-R-J1-PDC patient-derived invasive breast carcinoma cell line growth inhibition [GQUAD]
Conditions: spheroids with HUVEC and MSC; for viability, T/C: stronger effect = lower value
Description: DNA G-quadruplex Stabilizer Agents in Combinations in Complex Spheroids
A high-throughput screen of multi-cell type tumor spheroids was designed to identify active combinations of DNA G-quadruplex stabilizer agents and targeted small molecules. Complex spheroids include a stromal component modeled by human endothelial cells (HUVEC) and fibroblasts modeled by human mesenchymal stem cells (MSCs). The concentration ranges selected for each drug and investigational agent were based upon clinically achievable concentrations if the clinical Cmax of the agent was known.
Compounds. The drugs and investigational agents: pidnarulex (CX-5461; NSC782164), APTO-253 (NSC789042), BRACO-19 (NSC847499), peposertib (NSC802822), ceralasertib (NSC780249), elimusertib (NSC800525), camonsertib (NSC841442), AZD-1390 (NSC803789), olaparib (NSC753686), talazoparib (NSC767125), ART-558 (NSC835418), sotorasib (NSC818433), MRTX-1133 (NSC836407), SN-38 (NSC673596), topotecan (NSC609699), etoposide (NSC141540), doxorubicin (NSC123127), gemcitabine (NSC613327), 5-fluorouracil (NSC19893), paclitaxel (NSC125973), vemurafenib (NSC761431), panobinostat (NSC761190), R-306465 (JNJ-16241199; NSC773264), adavosertib (NSC754352), TP-3654 (NSC805149), carboplatin (NSC241240), KSQ-4279 (NSC840948), and staurosporine (NSC755774) were obtained from the National Cancer Institute (NCI) Developmental Therapeutics Program Chemical Repository (34). The FDA-approved anticancer drug set is available from the NCI Developmental Therapeutics Program. […] The stock solutions were prepared in dimethyl sulfoxide (DMSO, Sigma-Aldrich, St. Louis, MO, cat. D2650) at 800-fold the tested concentration and stored at -70 degrees C prior to their use. All drugs and investigational agents were tested over a range starting from a high concentration at or near the clinical Cmax and decreasing in half-log increments. If the clinical Cmax for an agent had not been determined, the highest concentration tested was 10 microM.
2.3 Cell Culture. All cells were maintained in an incubator at 37 degrees C and 5% CO2 with 95% humidity. The PDC lines were cultured according to standard operating procedures established by the NCI PDMR. All PDCs were thawed and cultured in Matrigel-coated flasks prepared with a working solution of 1X Ham's F-12 nutrient mix, without supplementation (Invitrogen, cat. 11765054), 100 U/mL penicillin-streptomycin (Invitrogen, cat. 15140122), and 2.5% Matrigel (Corning Inc., cat. 354248) for the first three passages. The 857933-349-R-J2-PDC line was cultured in 6C/Colon 1B media, which includes advanced DMEM/F-12 (Thermo Fisher Scientific, cat. 12634028), 10 mM HEPES (Thermo Fisher Scientific, cat. 15630080), 1X GlutaMAX supplement (Thermo Fisher Scientific, cat. 35050061), 0.1 mg/mL primocin (InvivoGen, cat. ant-pm-2), 10% defined fetal bovine serum, heat inactivated (HyClone Laboratories Inc., cat. SH30070.03HI), 50% L-WRN conditioned media (ATCC, cat. CRL-3276), 1.25 mM N-Acetyl-L-cysteine (Sigma-Aldrich, cat. A9165), 10 mM nicotinamide (Sigma-Aldrich, cat. N0636), 1X B-27 supplement (Thermo Fisher Scientific, cat. 17504044), 1X N-2 supplement (Thermo Fisher Scientific, cat. 17502048), 10 microM Y-27632 dihydrochloride (Tocris Bioscience, cat. 1254), and 50 ng/mL human EGF recombinant protein (Thermo Fisher Scientific, cat. PHG0311). The 485176-168-R4-J1-PDC line was cultured in Panc media, which includes all 6C/Colon 1B media components plus 100 ng/mL human FGF-10 (Thermo Fisher Scientific, cat. 100-26), 500 nM SB-431542 (Selleckchem, cat. S1067), and gastrin (Tocris, cat. 3006).
[…]
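Also: spheroids exposed to compounds for 7 days.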
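For viability, T/C in this document: 100% = DMSO vehicle control viability.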

Structure (SMILES): CC1COCCN1c1cc(C2(S(C)(=N)=O)CC2)nc(-c2ccnc3[nH]ccc23)n1 (stereo not drawn) + Cc1cnc(CNC(=O)c2c(=O)c3ccc(N4CCCN(C)CC4)nc3n3c2sc2ccccc23)cn1
IC50 (curve of first compound, second compound 0.0316 µM): 1040 nM | IC50 (curve of first compound, second compound 0.1 µM): 1050 nM | IC50 (curve of first compound, second compound 0.316 µM): 755 nM | IC50 (curve of first compound, second compound 1 µM): 1120 nM | IC50 (curve of first compound, second compound 3.16 µM): 1040 nM | IC50 (curve of first compound, second compound 10 µM): 1110 nM | viability, T/C (second compound 0.0316 µM, first compound 0.0316 µM): 93.8% | viability, T/C (second compound 0.0316 µM, first compound 0.1 µM): 82.8% | viability, T/C (second compound 0.0316 µM, first compound 0.316 µM): 90.7% | viability, T/C (second compound 0.0316 µM, first compound 1 µM): 50.8% | viability, T/C (second compound 0.0316 µM, first compound 3.16 µM): 15.5% | viability, T/C (second compound 0.0316 µM, first compound 10 µM): 9.59% | viability, T/C (second compound 0.1 µM, first compound 0.0316 µM): 87.5% | viability, T/C (second compound 0.1 µM, first compound 0.1 µM): 87.8% | viability, T/C (second compound 0.1 µM, first compound 0.316 µM): 74.1% | viability, T/C (second compound 0.1 µM, first compound 1 µM): 53.9% | viability, T/C (second compound 0.1 µM, first compound 3.16 µM): 18.7% | viability, T/C (second compound 0.1 µM, first compound 10 µM): 10.7% | viability, T/C (second compound 0.316 µM, first compound 0.0316 µM): 74.9% | viability, T/C (second compound 0.316 µM, first compound 0.1 µM): 80.5% | viability, T/C (second compound 0.316 µM, first compound 0.316 µM): 63.5% | viability, T/C (second compound 0.316 µM, first compound 1 µM): 45.7% | viability, T/C (second compound 0.316 µM, first compound 3.16 µM): 21.7% | viability, T/C (second compound 0.316 µM, first compound 10 µM): 11.2% | viability, T/C (second compound 1 µM, first compound 0.0316 µM): 67.6% | viability, T/C (second compound 1 µM, first compound 0.1 µM): 61.5% | viability, T/C (second compound 1 µM, first compound 0.316 µM): 68.7% | viability, T/C (second compound 1 µM, first compound 1 µM): 50.3% | viability, T/C (second compound 1 µM, first compound 3.16 µM): 28.7% | viability, T/C (second compound 1 µM, first compound 10 µM): 13.6% | viability, T/C (second compound 3.16 µM, first compound 0.0316 µM): 61.9% | viability, T/C (second compound 3.16 µM, first compound 0.1 µM): 56.9% | viability, T/C (second compound 3.16 µM, first compound 0.316 µM): 58.7% | viability, T/C (second compound 3.16 µM, first compound 1 µM): 50.3% | viability, T/C (second compound 3.16 µM, first compound 3.16 µM): 35.1% | viability, T/C (second compound 3.16 µM, first compound 10 µM): 17.1% | viability, T/C (second compound 10 µM, first compound 0.0316 µM): 57.5% | viability, T/C (second compound 10 µM, first compound 0.1 µM): 64.1% | viability, T/C (second compound 10 µM, first compound 0.316 µM): 57.2% | viability, T/C (second compound 10 µM, first compound 1 µM): 51.9% | viability, T/C (second compound 10 µM, first compound 3.16 µM): 33% | viability, T/C (second compound 10 µM, first compound 10 µM): 16.2%

Structure (SMILES): CC(=O)O[C@H]1C(=O)[C@@]2(C)[C@H]([C@H](OC(=O)c3ccccc3)[C@]3(O)C[C@H](OC(=O)[C@H](O)[C@@H](NC(=O)c4ccccc4)c4ccccc4)C(C)=C1C3(C)C)[C@]1(OC(C)=O)CO[C@@H]1C[C@@H]2O
viability, T/C (compound 0.0316 µM): 50.5% and 44.8% and 33.4% | viability, T/C (compound 0.1 µM): 32.6% and 33.4% and 25.7% | viability, T/C (compound 0.316 µM): 32% and 29.3% and 21.5% | viability, T/C (compound 1 µM): 29.8% and 26.7% and 22.8% | viability, T/C (compound 3.16 µM): 29.6% and 24.3% and 23.2% | viability, T/C (compound 10 µM): 29.6% (2×) and 24% | IC50 (curve of compound): < 31.6 nM

Structure (SMILES): COc1cc(C2c3cc4c(cc3C(OC3OC5COC(C)OC5C(O)C3O)C3COC(=O)C23)OCO4)cc(OC)c1O (stereo not drawn)
viability, T/C (compound 0.0316 µM): 96.6% and 95.8% and 105% | viability, T/C (compound 0.1 µM): 89.9% and 93.5% and 94.8% | viability, T/C (compound 0.316 µM): 74.2% and 73.8% and 92.6% | viability, T/C (compound 1 µM): 47.9% and 42.6% and 70.5% | viability, T/C (compound 3.16 µM): 32.8% and 30.4% and 55.1% | viability, T/C (compound 10 µM): 23.5% and 21.9% and 44.2% | IC50 (curve of compound): 956 nM and 784 nM and 5260 nM

Continued, in another order:

IC50 (curve of compound): 838 nM and 629 nM and 684 nM
Structure (SMILES): COc1ccc([C@@H](O)c2cc(-c3ncnc4cc(N5CCOCC5)ccc34)c(F)cc2Cl)nn1
viability, T/C (compound 0.0316 µM): 82.4% and 94.3% and 101% | viability, T/C (compound 0.1 µM): 85.4% and 83% and 76.8% | viability, T/C (compound 0.316 µM): 72.4% and 72.6% and 69.2% | viability, T/C (compound 1 µM): 46.7% and 35.9% and 46.9% | viability, T/C (compound 3.16 µM): 13.4% and 7.19% and 13.3% | viability, T/C (compound 10 µM): 5.21% and 1.35% and 5.78%

IC50 (compound alone, run of 02/20/2024): 2.63 µM [middle of 8 runs] | IC50 (compound alone, run of 02/26/2024): 1.65 µM [middle of 4 runs]
Structure (SMILES): Cc1[nH]c2ccc(F)cc2c1-c1nc2c3cccnc3c3ncccc3c2[nH]1
viability, T/C (compound 0.0316 µM): 101% [middle of 12 runs] | viability, T/C (compound 0.1 µM): 103% [middle of 12 runs] | viability, T/C (compound 10 µM): 54.6% [middle of 12 runs]
